Experimental data from patent publication US20040014024A1, “Screening assay for antagonists of FGFR-mediated malignant cell transformation and tumor formation” (priority 1999, published 2004).

System: RCJ cells
Assay: Tumor formation in nude mice injected with RCJ cells, doxycycline in drinking water
Type: in vivo
Conditions: doxycycline 25 μg/ml in drinking water, up to 60 days
Experimental: 6-8-Week old nude mice (BalbC/Nu) were injected subcutaneously with equivalent number of parental RCJ or L8 cells or FGFR3 expressing cell lines and were followed for tumor formation for up to 60 days after injections. Inhibition of FGFR expression in vivo was done by adding 25 μg/ml doxycycline into the drinking water of mice which had previously received the RCJ cell clones by injection. Nude mice were injected subcutaneously with equivalent numbers of parental RCJ cells (FIGS. 9 A-C, C2, squares) or wild type or mutant FGFR3 expressing RCJ cell lines (W11, circles in FIG. 9A, M15, triangles in FIG. 9A, W2, triangles in FIG. 9B, M16, circles in FIG. 9B) and tumor surface areas were evaluated for up to 60 days after injection (ordinates). […] Triangles, C2 (control) clone plus doxycycline, circles, W11 clone, filled squares, W11 clone plus doxycycline Doxycycline was used in animals because the former is a potent high affinity derivative of tetracycline. […] The inhibition of tumor formation of RCJ cells was highly correlated with the expression levels of FGFR3. In order to determine whether inhibition of tumor formation reflects the expression level of FGFR3, we have performed an assay where we tried to suppress the expression of FGFR3 in vivo by the addition of doxycycline to the drinking water of injected mice.

SMILES: C[C@H]1c2cccc(O)c2C(=O)C2=C(O)[C@]3(O)C(=O)C(C(N)=O)=C(O)[C@@H](N(C)C)[C@@H]3[C@@H](O)[C@@H]21 [doxycycline]
- effect on tumor formation, mice injected with the parental RCJ line (C2): no significant effect
